Active and inactive are the calls of the source. No rule for the calls is given here.
Assays:
[1] = inhibitors of PAF-induced NFkB signaling in CF airway cells, dose response, cell-based, uHTS hits, panel, cytotoxicity readout (AID 624344); conditions: CF bronchial epithelial cells, PAF-induced NFkB reporter inhibition; with PAF, mean of runs
Cytotoxicity = assay: as above; conditions: CF bronchial epithelial cells, mean of runs

Compound	IC50 [1]	IC50 (Cytotoxicity)
O=C1N(c2ccccc2C(F)(F)F)O[C@@]1(c1ccccc1)C1CCCCC1	8.4 µM	> 79 µM (inactive)
CN(C)/C=C/C(=O)c1ccc2noc(-c3ccccc3)c2c1	3.54 µM	10.8 µM
O=C(OC1CCOC1=O)c1ccccc1C(=O)c1ccc(Cl)c([N+](=O)[O-])c1 (stereo not given)	4.44 µM	7.46 µM
CCC1=Nc2cc(C(=O)NCc3ccco3)ccc2Sc2ccc(C)cc21	11.7 µM	57.9 µM (inactive)
CCC1(O)CC2CN(CCc3c([nH]c4ccccc34)C(C(=O)OC)(c3cc4c(cc3OC)N(C=O)C3C(O)(C(=O)OC)C(OC(C)=O)C5(CC)C=CCN6CCC43C65)C2)C1 (stereo not given)	3.67 µM	63.1 µM (inactive)
Cc1nn(-c2ccccn2)c2c1-c1nc(N)ncc1CC2	6.76 µM	65.3 µM (inactive)
C=CCOc1c(OC)cc(/C=N/Nc2cccc(C(=O)O)c2)c(Br)c1Br	15.3 µM	44.5 µM
O=Nc1ccc(NO)c2ccccc12	7.21 µM	17.4 µM
COc1ccc(-c2csc3ncnc(NCCN4CCOCC4)c23)cc1	3.79 µM	47 µM
O=C(c1cc([N+](=O)[O-])ccc1N1CCOCC1)N1CCN(c2ccccc2)CC1	inactive	> 79 µM (inactive)
O=C(Nc1ccc([N+](=O)[O-])cc1)Nc1ccc(Cl)cc1F	2.92 µM	2.19 µM
O=C(NNc1ccccc1Cl)C(O)(c1cccc(C(F)(F)F)c1)c1cccc(C(F)(F)F)c1	13.3 µM	7.25 µM
CN(c1ncnc(N)c1[N+](=O)[O-])C1CCCCC1	1.09 µM	> 79 µM (inactive)
C=CCSc1nc2ccccc2n1C(=O)/C=C/c1ccc(OC)c(OC)c1	3.46 µM	62 µM (inactive)
CCN(CC)CCN(C(=O)CCS(=O)(=O)c1ccccc1)c1nc2c(C)cc(C)cc2s1	5.98 µM	8 µM
C/C(=N\Nc1cc(N2CCOCC2)ncn1)c1cccc([N+](=O)[O-])c1	4.21 µM	14.4 µM
C=C1C(=O)[C@]23C[C@H]1CC[C@H]2[C@]1(C)[C@@H](O)CC[C@@](C)(C(=O)O)[C@H]1C[C@@H]3O	2.04 µM	12.5 µM
CC(=O)Oc1ccc(N(C(C)=O)S(=O)(=O)c2cccs2)c2ccccc12	6.45 µM	11.7 µM
Nc1nccc(SCc2ccc(Cl)cc2Cl)n1	14.3 µM	> 79 µM (inactive)
Cc1ccc(C(=O)Nc2cccc(C(F)(F)F)c2)cc1NC(=O)c1ccno1	0.626 µM	> 79 µM (inactive)
C=C1C(=O)O[C@@]23[C@H]1CC[C@@H](C)[C@@H]2CC[C@@]1(C)O[C@@H]31	3.76 µM	44.9 µM
COc1ccc(-n2nc(C(=O)NCC(=O)Nc3cc(OC)c(OC)c(OC)c3)c3ccccc3c2=O)cc1OC	2.25 µM	14.6 µM
O=c1[nH]c2ccccc2n1C1CCN(C(c2cccc3ccccc23)c2nnnn2Cc2ccccc2)CC1 (stereo not given)	3.25 µM	10 µM
COc1cccc(-c2cnc3c(NC=O)cc(-c4ccc(OC)cc4OC)cn23)c1	14.2 µM	26 µM
O=C(COC(=O)c1c2c(nc3ccccc13)CCN(Cc1ccccc1)C2)Nc1c(F)cccc1F	3.28 µM	2.64 µM
CC(=O)c1ccc(-n2c(C)c(C(C)=O)c3cc(O)ccc32)cc1	1.34 µM	44.5 µM
C=C1C(=O)O[C@@H]2[C@H]1CC[C@H](C)[C@]1(O)CCC(=O)[C@@]21C	2.37 µM	40 µM

Compound	IC50 [1]	IC50 (Cytotoxicity)
COc1ccc(S(=O)(=O)N2c3cc(C)ccc3OCC2C(C)(C)C)cc1 (stereo not given)	6.36 µM	> 79 µM (inactive)
COc1cc2c(c(OC)c1OC)-c1ccc(NCc3ccccc3)c(=O)cc1C(NC(C)=O)CC2 (stereo not given)	15.5 µM	45.8 µM
O=C(Nc1ccc(C(=O)N2CCOCC2)cc1)Nc1cccc(C(F)(F)F)c1	1.69 µM	> 79 µM (inactive)
O=C1NC(=S)N/C1=C\c1cccnc1	5.71 µM	> 79 µM (inactive)
CCOC(=O)Cc1nnc2c(Nc3ccc(Cl)cc3)nc3nonc3n12	3.23 µM	1.72 µM
Cc1ccc(N=Cc2cc3c(cc2O)OC(N)=C(C#N)C3c2ccccc2)cc1 (stereo not given)	2.07 µM	53.6 µM (inactive)
COc1ccc(S(=O)(=O)c2c(O)c3ccc(C(=O)Nc4ccccc4Cl)cc3[nH]c2=O)cc1	7.32 µM	37.8 µM
FC(F)Sc1ccc(NC(=S)NC(c2ccccc2)c2ccccc2)cc1	6.53 µM	9.19 µM
COc1ccc2c(c1)c(C(C)=O)c(C)n2-c1ccc(C(C)=O)cc1	2.83 µM	44.5 µM
CCOc1ccc(Nc2ncnc3ccc([N+](=O)[O-])cc23)cc1	1.67 µM	21.4 µM
Cc1c(C(=O)OCC(C)C)[nH]c2c1C(=O)CC(c1ccco1)C2 (stereo not given)	inactive	38.3 µM
CC(=O)c1c(C)n(C2CCCCC2)c2ccc(O)cc12	0.797 µM	> 79 µM (inactive)
Cc1ccc(C(=O)Nc2cccc(C(F)(F)F)c2)cc1NC(=O)c1cnnc2ccccc12	6.43 µM	22.6 µM
COc1ccc(N(CCCN2C(=O)c3cccc4cccc(c34)C2=O)C(=O)c2ccncc2)cc1	inactive	12.9 µM
Cc1nc([N+](=O)[O-])c(Sc2nc3ccccc3n2C)n1Cc1ccccc1	4.05 µM	13 µM
Cc1ccc2occ(/C=N/NC(=O)c3ccccc3C)c(=O)c2c1	1.36 µM	43.2 µM
O=C1N(c2ccccc2C(F)(F)F)O[C@]1(c1ccccc1)C1CCCCC1	10.7 µM	> 79 µM (inactive)
COc1cccc(NC(=O)Nc2nnc(CC(=O)NCc3ccccc3)s2)c1	5.09 µM	52.3 µM (inactive)
CC(=O)Nc1ccc(NC(=O)c2nc(S(=O)(=O)Cc3cccc(C)c3)ncc2Cl)cc1	5.98 µM	11.5 µM
CC(C)C[C@H](CO)Nc1nc(Nc2cccc(Cl)c2)c2ncn(C(C)C)c2n1	5.12 µM	36.2 µM
COc1ccc(/C=N/NC(=O)c2[nH]c3ccc(Br)cc3c2-c2ccccc2)cc1	9.3 µM	27 µM
Cc1ccc(C(=O)c2cncc(Br)c2)cc1	13 µM	> 79 µM (inactive)
COc1cccc(-c2cc(NC=O)c3ncc(-c4ccc(C(C)=O)cc4)n3c2)c1	11.8 µM	37.2 µM
Cc1ccc(CSc2nccc(-c3c(C)nc4ccccn34)n2)cc1	3.18 µM	26.4 µM
C[C@@H]1CN([C@H](C)CO)C(=O)c2cc(NC(=O)Nc3ccc(C(F)(F)F)cc3)ccc2O[C@H]1CN(C)S(=O)(=O)c1ccc(Cl)cc1	14.1 µM	> 79 µM (inactive)
NC(=O)c1sc2nccc(Nc3ccccc3)c2c1N	0.374 µM	40 µM
COC1(OC)C=CC(=O)C=C1NC(=O)c1ccccc1OC(C)=O	4.11 µM	15.2 µM

Compound	IC50 [1]	IC50 (Cytotoxicity)
COc1cc(C2c3cc4c(cc3C3OC(=O)C2C3CO)OCO4)cc(OC)c1OC (stereo not given)	inactive	> 79 µM (inactive)
Clc1cncc(Cl)c1N/N=C/c1ccncc1	1.67 µM	12.5 µM
O=c1[nH]c2ccccc2n1C1CCN(C(c2cc3ccccc3o2)c2nnnn2-c2ccc3c(c2)OCCO3)CC1 (stereo not given)	3.2 µM	10.2 µM
O=C(Nc1ccc(Oc2ccc(NC(=O)Nc3ccc([N+](=O)[O-])cc3)cc2)cc1)Nc1ccc([N+](=O)[O-])cc1	6.12 µM	27.8 µM
O=C(/C=C/c1cccs1)Nc1cccc(NC(=O)/C=C/c2cccs2)n1	5.98 µM	1.57 µM
CC(C)C[C@H]1CNC(=S)N1C[C@H]1CCCN1C[C@H](Cc1ccccc1)N1C[C@H](Cc2ccc(O)cc2)N(CC2CCCCCC2)C1=S	15.3 µM	28.6 µM
Cc1ccc(NC(=O)Nc2cccc([N+](=O)[O-])c2)cc1F	6.2 µM	3.58 µM
CCOc1ccccc1NC(=O)c1nc(S(=O)(=O)Cc2ccccc2)ncc1Cl	1.83 µM	2.27 µM
COc1ccc(NC(=O)c2cc3c(-c4ccc(OC)c(OC)c4)nn(C)c3s2)cc1OC	6.06 µM	5.55 µM
CCOc1ccc(-n2cc(-c3ccccc3)c3c(N4CCOCC4)ncnc32)cc1	3.99 µM	7.28 µM
COc1ccccc1NC(=O)c1cc2c(CO)cnc(C)c2oc1=Nc1ccc(OC)c(OC)c1	9.49 µM	12.2 µM
COC(=O)C1=C(C(=O)OC)[C@@H]2N(Cc3ccccc3)c3ccccc3[C@@]23C[C@@H](C(=O)OC)N(C(=O)c2ccc(Br)cc2)C3=N1	5.67 µM	28.5 µM
CCCCCCc1cc2cc(C(=O)Nc3ccccc3OC)c(=O)oc2cc1O	inactive	49.4 µM
CN(C)c1ccc(Nc2ncnc3ccc(Br)cc23)cc1	1.66 µM	15.9 µM
COc1cc(CN(C)c2ccc(S(=O)(=O)N3CCCC3)cn2)ccc1OC(F)F	0.453 µM	> 79 µM (inactive)
CCSc1nsc(NC(=O)Nc2cccc(C(C)=O)c2)n1	2.24 µM	36.5 µM
O=C(Nc1ccncc1)c1c(Cl)cccc1Cl	5.03 µM	38.9 µM
CN(C)c1ccc(-c2nn3c(-c4ccccc4Cl)nnc3s2)cc1	19.2 µM	> 79 µM (inactive)
Nc1nc(N)nc(-c2cc([N+](=O)[O-])ccc2O)n1	8.82 µM	> 79 µM (inactive)
CC(=O)Nc1ccc(-c2ccnc3c2CC(C(=O)NCc2ccco2)O3)cc1 (stereo not given)	inactive	> 79 µM (inactive)
COc1ccc2c(c1OC)C(=O)N1c3ccccc3C(=O)N(c3ccccc3)C21 (stereo not given)	0.902 µM	2.94 µM
Cc1ccc(NC(=O)c2ccccc2NS(=O)(=O)c2ccc(Cl)s2)cc1S(=O)(=O)N1CCOCC1	3.36 µM	8.23 µM
Oc1ccc(Br)cc1-c1nc2cnccn2c1NC1CCCC1	3.04 µM	14.5 µM
O=S1(=O)CCC(NC(=S)SCCOc2ccccc2)C1 (stereo not given)	4.58 µM	20.1 µM
O=C(NCCCSc1ccccc1)c1cc(Br)ccc1O	4.8 µM	3.05 µM
Cc1ccc(CNc2ncnc(N)c2[N+](=O)[O-])cc1	6.41 µM	73.3 µM (inactive)
